Assay results from the supplement of paper PMC11208160.

Assay: recombinant barcode read abundance after kanamycin selection (control-corrected) (log10(CPM+1)); higher = more efficient recombination; sequences stand for … in AGTGCAGAGAAAATCGGCCAGTTTTCTCTGCCTGCAGTCCGCATGCCGT…AGATTTATGCAGCGGACTGCCTTTCTCCCAAAGTGATAAACCGGACAGTATCATGGACCGGTTTTCCCGGTAATCCGTATTTGCAAGGTTGGTTTCACT; site = the 11-nt target
Method in brief: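 For this pooled screen, each oligo contained a promoter, a target, a barcode and the J23119-driven first 104 bases of the bridge RNA. Gibson cloning placed it into a vector supplying the remaining 73 bp and a T7-inducible recombinase, and the pool was co-electroporated into E. coli with a donor plasmid. Recombination efficiency is derived from barcode counts per million at recombinant junctions after averaging and control correction, and is expressed on a log scale as log10(CPM+1), with selection on chloramphenicol/ampicillin/kanamycin plus 0.1 mM IPTG against a chloramphenicol/ampicillin LB agar control.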
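Further: IS621 recombinase and bridge RNA in Escherichia coli cells.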

| Sequence | recombinant barcode read abundance (log10) |
| --- | --- |
| CACAGTGCTTGGGTTCTAACCTGTTGCCT (site CACAGTGCTAG) | 0.235 |
| CACAGTGCTTGGGTTCTAACCTGTTGCCT (site CAGAGTACTAG) | 0.0936 |
| CACATACCTTGGGTTCTAACCTGTTGCCG (site CACATACCTAC) | 0.0694 |
| CACATACCTTGGGTTCTAACCTGTTGCCG (site CACATACCTCG) | 0.443 |
| CACATACCTTGGGTTCTAACCTGTTGCGT (site CACATACCTAC) | 1.92 |
| CACATACCTTGGGTTCTAACCTGTTGCGT (site CACATACCTCG) | 0.0777 |
| CACATCGCTTGGGTTCTAACCTGTTGCCT (site CACATCGCTAG) | 1.08 |
| CACATCGCTTGGGTTCTAACCTGTTGCCT (site TACTTCGCTAG) | 0.155 |
| CACATGGCTTGGGTTCTAACCTGTTGCCG (site CACAGGGCTCC) | 0.159 |
| CACATGGCTTGGGTTCTAACCTGTTGCCG (site CACATGGCTCG) | 0.259 |
| CACCAACCTTGGGTTCTAACCTGTTGCCT (site CACCAAACTAG) | 0.112 |
| CACCAACCTTGGGTTCTAACCTGTTGCCT (site CACCAACCTAG) | 0.313 |
| CACCAGTCTTGGGTTCTAACCTGTTGCGG (site CACAAGTCTAC) | 0.0664 |
| CACCAGTCTTGGGTTCTAACCTGTTGCGG (site CACCAGTCTCC) | 2.14 |
| CACCCTACTTGGGTTCTAACCTGTTGCCT (site AACCCTACTAG) | 0.04 |
| CACCCTACTTGGGTTCTAACCTGTTGCCT (site CACCCTACTAG) | 1.26 |
| CACCCTACTTGGGTTCTAACCTGTTGCCT (site GACCCTACTAG) | 0.0997 |
| CACCCTACTTGGGTTCTAACCTGTTGCCT (site TACCCTACTAG) | 0.0523 |
| CACCGTCCTTGGGTTCTAACCTGTTGCGT (site CACCGTCCTAC) | 3.03 |
| CACCGTCCTTGGGTTCTAACCTGTTGCGT (site CACCGTCCTAT) | 1.57 |
| CACCTGACTTGGGTTCTAACCTGTTGCCG (site CACCTGACTCG) | 0.599 |
| CACCTGACTTGGGTTCTAACCTGTTGCCG (site CACCTGTCTCG) | 0.0187 |

| Sequence | recombinant barcode read abundance (log10) |
| --- | --- |
| CACCTGTCTTGGGTTCTAACCTGTTGCGG (site AGATATACTAA) | 0.0793 |
| CACCTGTCTTGGGTTCTAACCTGTTGCGG (site CACCTGTCTCC) | 1.8 |
| CACGATCCTTGGGTTCTAACCTGTTGCTT (site AGTCGGACTGT) | 0.11 |
| CACGATCCTTGGGTTCTAACCTGTTGCTT (site CACGATCCTAA) | 1.52 |
| CACGCAACTTGGGTTCTAACCTGTTGCTT (site CACGCAACTAA) | 0.476 |
| CACGCAACTTGGGTTCTAACCTGTTGCTT (site GAGGCAACTAA) | 0.888 |
| CACTATCCTTGGGTTCTAACCTGTTGCCT (site CAATATCCTAG) | 0.0585 |
| CACTATCCTTGGGTTCTAACCTGTTGCCT (site CACTATCCTAG) | 2.16 |
| CACTATCCTTGGGTTCTAACCTGTTGCCT (site CAGTATCCTAG) | 0.157 |
| CACTATCCTTGGGTTCTAACCTGTTGCCT (site CATTATCCTAG) | 0.0363 |
| CACTCTGCTTGGGTTCTAACCTGTTGCCT (site CAATCTGCTAG) | 0.617 |
| CACTCTGCTTGGGTTCTAACCTGTTGCCT (site CACTCTGCTAG) | 0.569 |
| CACTCTGCTTGGGTTCTAACCTGTTGCCT (site CAGTCTGCTAG) | 0.0477 |
| CACTCTGCTTGGGTTCTAACCTGTTGCCT (site CATTCTGCTAG) | 0.332 |
| CACTGGGCTTGGGTTCTAACCTGTTGCAG (site CACTGGGCTCT) | 0.791 |
| CACTGGGCTTGGGTTCTAACCTGTTGCAG (site CACTTGGCTCT) | 0.115 |
| CACTGTTCTTGGGTTCTAACCTGTTGCCT (site CACTGATCTAG) | 0.325 |
| CACTGTTCTTGGGTTCTAACCTGTTGCCT (site CACTGCTCTAG) | 0.0508 |
| CACTGTTCTTGGGTTCTAACCTGTTGCCT (site CACTGGTCTAG) | 0.069 |
| CACTGTTCTTGGGTTCTAACCTGTTGCCT (site CACTGTTCTAG) | 0.737 |
| CACTTCCCTTGGGTTCTAACCTGTTGCAT (site CACTTCCCTAA) | 0.0158 |
